Laboratory results taken from patent EP0149197B2, “Pharmaceutical compositions containing drugs which are sparingly soluble in water or instable and methods for their preparation” (priority 1983, dated 1985).
Values after ≈ are worked out from the molar mass of the structure shown. Where two headings read alike, the source gives them in different places. Marks after values point to notes of the source that are not given here.

Tests used:
[1] = Saturation solubility with and without 4 % hydroxypropyl-methyl-β-cyclodextrin (DS 0,96; MS 0,43); assay type: physicochemical
Source text: B. In ähnlicher Weise wurde die Löslichkeit von Arzneistoffen in einer 4 %-igen wässrigen Lösung von Hydroxypropyl-methyl-β-cyclodextrin (DS = 0,96; MS = 0,43) untersucht. Die erhaltenen Ergebnisse sind in der nachfolgenden Tabelle 2 zusammengefaßt, wobei für jeden Arzneistoff das Verhältnis R von Sättigungslöslichkeit in Wasser bzw. beim angegebenen pH-Wert mit und ohne Zusatz des β-Cyclodextrinderivats angegeben ist.

[2] = Saturation solubility in phosphate buffer with and without 10 % hydroxypropyl-β-cyclodextrin (MS 0.35); conditions: for Verh.S1 zu S2: given as 1: x; for solubility thermodynamic at 24 h: phosphate buffer
Procedure: A. Unter Verwendung einer 10 %-igen Hydroxypropyl-β-cyclodextrinlösung (MS 0.35) in Phosphatpufferlösung wurde unter denselben Bedingungen wie in Beispiel 1 die Sättigungslöslichkeit bei 25°C für verschiedene Arzneistoffe bestimmt. In Tabelle 1 sind die Sättigungslöslichkeit S1 in Phosphatpufferlösung und S2 in Phosphatpufferlösung unter Zusatz von 10 % Hydroxypropyl-β-cyclodextrin angegeben. Tabelle 1

[3] = with the 2,6-Di-O-methylderivat of β-cyclodextrin; cited from earlier work
[4] = Storage stability of indometacin solutions at 21°C, HPLC content; assay type: physicochemical; conditions: aqueous buffer; concentration of the saturated solution in phosphate buffer (solution A); read-out: gesättigte Lösung in Phosphatpufferlösung
Procedure: In 10 ml Phosphatpufferlösung wurden bei 25°C 0,7 g Hydroxyethyl-β-cyclodextrin (MS 0.43) und 0,04 g Indometacin bis zur klaren Lösung eingearbeitet. Diese wurde durch ein Membranfilter (0,22 µm) filtriert und unter Laminarflow in eine vorsterilisierte Injektionsflasche abgefüllt, die bei 21°C eingelagert wurde (B). Parallel dazu wurde eine gesättigte Indometaeinlösung in Phosphatpufferlösung (0,21 mg/ml) unter gleichen Bedingungen aufbewahrt (A). Die hochdruckflüssigkeitschromatographisch ermittelten Wirkstoff-Konzentrationen sind in Tabelle 3 wiedergegeben. Die wesentlich verbesserte Stabilität des erfindungsgemäßen Präparates ist offensichtlich. Tabelle 3

[5] = Dissolution rate of medroxyprogesterone acetate from tablets; assay type: physicochemical; conditions: tablet with Hydroxyethyl-β-cyclodextrin (MS 0.43) versus same tablet excipients without β-cyclodextrin ether
Procedure: In 100 ml Wasser wurden 7 g Hydroxyethyl-β-cyclodextrin (MS 0.43) sowie 0,5 g Medroxyprogesteronacetat gelöst. Anschließend wurde das Wasser auf einem Rotationsverdampfer abgezogen. Der Rückstand […] wurde pulverisiert und mit 366 mg Calcium-hydrogenphosphat. 2H2O, 60 mg Maisstärke, 120 mg Cellulosepulver(mikrokristallin), 4,2 mg hochdisperse Kieselsäure (Aerosil® 200) und 4,8 mg Magnesiumstearat zu Tabletten mit einem Endgewicht von 630,0 mg und pro Einzeldosis 5 mg Wirkstoff verarbeitet. Die Lösungsgeschwindigkeit des Medroxyprogesteronacetats aus dieser Zubereitung ist etwa 21 mal höher als bei Einsatz der gleichen Tablettenhilfsstoffe ohne Zusatz des β-Cyclodextrinethers.

[6] = Acute intravenous toxicity in rats; assay type: in vivo, Ratten; conditions: rat, in vivo, iv
Source text: (§1) Die akute intravenöse Toxizität von einigen β-Cyclodextrinen wurde an Ratten untersucht, wobei die nachfolgenden Ergebnisse erhalten wurden. Dabei zeigte sich, daß die Toxizität der erfindungsgemäß eingesetzten Derivate überraschend eine ganze Größenordnung niedriger ist. Tabelle 5

[7] = in water; cited from earlier work
Ratten = assay: Acute intravenous toxicity in rats; assay type: in vivo; conditions: rat, i.v.
Source text: as §1

[8] = tested on: roten Blutkörperchen (menschlichen Ursprungs); assay type: cell-based; conditions: human, 30 min
Procedure: In einer weiteren Versuchsreihe wurde die hämolytische Wirkung der Methylether gemäß DE-A-3 118 218 mit derjenigen eines erfindungsgemäß verwendeten Ethers verglichen. Dazu wurden 100 µl einer physiologischen Kochsalzlösung mit einem Cyclodextringehalt von 10 %, 800 µl eines Puffers (400 mg MOPS, 36 mg Na2HPO4·2 H2O, 1,6 g NaCl in 200 ml H2O) und 100 µl einer Suspension von roten Blutkörperchen (menschlichen Ursprungs, dreimal mit Kochsalzlösung gewaschen), 30 Min. lang bei 37°C gemischt. Anschließend wurde zentrifugiert und die Extinktion bei 540 mn bestimmt.
Kontrollen: • a) 100 µl Kochsalzlösung + Puffer → 0 % Hämolyse • b) 900 µl Wasser → 100 % Hämolyse
Die gefundenen Ergebnisse sind in der nachfolgenden Tabelle 6 zusammengefaßt, wobei die Konzentrationen angegeben sind, bei denen eine 50 %-ige bzw. eine 100 % Hämolyse stattfand. Tabelle 6

[9] = phosphate buffer, pH 6.6
Source text: Die in den Beispielen genannte Phosphatpuffer-Lösung hatte einen pH-Wert von 6.6 und folgende Zusammensetzung:

[10] = in water, 4 % Hydroxypropyl-methyl-β-cyclodextrin

Compound: COc1cc(N)c(Cl)cc1C(=O)NC1CCN(CCCOc2ccc(F)cc2)CC1OC (stereo not drawn) [Cisaprid]
- Verhältnis R von Sättigungslöslichkeit mit und ohne Zusatz des β-Cyclodextrinderivats [1]: 3

Compound: C[C@@H]1C[C@H]2[C@@H]3CCC4=CC(=O)C=C[C@]4(C)[C@@]3(F)[C@@H](O)C[C@]2(C)[C@@]1(O)C(=O)CO [Dexamethason]
- Verh.S1 zu S2 [2]: 172,0
- solubility thermodynamic at 24 h ([2]; 10% hp-beta-cd, pH 6.6): 14300 µg/mL (≈ 36400 µM)
- solubility thermodynamic at 24 h ([2]; pH 6.6, aqueous buffer): 83 µg/mL (≈ 211 µM)

Compound: CN1C(=O)CN=C(c2ccccc2)c2cc(Cl)ccc21 [Diazepam]
- Verh.S1 zu S2 [2]: 29,4

Compound: C[C@H]1O[C@@H](O[C@H]2[C@@H](O)C[C@H](O[C@H]3[C@@H](O)C[C@H](O[C@H]4CC[C@@]5(C)[C@H](CC[C@@H]6[C@@H]5CC[C@]5(C)[C@@H](C7=CC(=O)OC7)CC[C@]65O)C4)O[C@@H]3C)O[C@@H]2C)C[C@H](O)[C@@H]1O [Digitoxin]
- Steigerung der Löslichkeit in Wasser [3]: 81,6 -fache

Compound: CCOC(=O)c1cncn1[C@H](C)c1ccccc1 [Etomidat]
- Verhältnis R von Sättigungslöslichkeit mit und ohne Zusatz des β-Cyclodextrinderivats [1, 10]: 8,5

Compound: COC(=O)Nc1nc2cc(C(=O)c3ccc(F)cc3)ccc2[nH]1 [Flubendazol]
- Verhältnis R von Sättigungslöslichkeit mit und ohne Zusatz des β-Cyclodextrinderivats [1, 10]: 30

Compound: Fc1ccc(C(c2ccc(F)cc2)N2CCN(C/C=C/c3ccccc3)CC2)cc1 [Flunarizin]
- Verhältnis R von Sättigungslöslichkeit mit und ohne Zusatz des β-Cyclodextrinderivats [1, 10]: 18

Compound: COc1ccc2c(c1)c(CC(=O)O)c(C)n2C(=O)c1ccc(Cl)cc1 [Indometacin]
- Verh.S1 zu S2 [2]: 30,1
- solubility thermodynamic at 24 h ([2]; 10% hp-beta-cd, pH 6.6): 5720 µg/mL (≈ 16000 µM)
- solubility thermodynamic at 24 h ([2]; pH 6.6, aqueous buffer): 190 µg/mL (≈ 531 µM)
- solubility [4]: 210 µg/mL (≈ 587 µM)

Compound: CCC(C)n1ncn(-c2ccc(N3CCN(c4ccc(OCC5COC(Cn6cncn6)(c6ccc(Cl)cc6Cl)O5)cc4)CC3)cc2)c1=O (stereo not drawn) [Itraconazol]
- Verhältnis R von Sättigungslöslichkeit mit und ohne Zusatz des β-Cyclodextrinderivats ([1]; pH 2): 75
- Verhältnis R von Sättigungslöslichkeit mit und ohne Zusatz des β-Cyclodextrinderivats ([1]; pH 5): 96

Compound: CC(=O)N1CCN(c2ccc(OCC3COC(Cn4ccnc4)(c4ccc(Cl)cc4Cl)O3)cc2)CC1 (stereo not drawn) [Ketoconazol]
- Verhältnis R von Sättigungslöslichkeit mit und ohne Zusatz des β-Cyclodextrinderivats [1]: 85

Compound: CN(C)C(=O)C(CCN1CCC(O)(c2ccc(Cl)cc2)CC1)(c1ccccc1)c1ccccc1 [Loperamid]
- Verhältnis R von Sättigungslöslichkeit mit und ohne Zusatz des β-Cyclodextrinderivats [1, 10]: 62

Compound: CC(=O)OC1(C(C)=O)CCC2C3CC(C)C4=CC(=O)CCC4(C)C3CCC21C (stereo not drawn) [Medroxyprogesteronacetat]
- Lösungsgeschwindigkeit [5]: ~21 mal höher

Compound: CC(=O)[C@H]1CC[C@H]2[C@@H]3CCC4=CC(=O)CC[C@]4(C)[C@H]3CC[C@]12C [Progesteron]
- Verh.S1 zu S2 [2]: 1083,0
- solubility thermodynamic at 24 h ([2]; 10% hp-beta-cd, pH 6.6): 7690 µg/mL (≈ 24500 µM)
- solubility thermodynamic at 24 h ([2]; pH 6.6, aqueous buffer): 7.1 µg/mL (≈ 22.6 µM)

Compound: OC[C@H]1O[C@@H]2O[C@H]3[C@H](O)[C@@H](O)[C@@H](O[C@H]4[C@H](O)[C@@H](O)[C@@H](O[C@H]5[C@H](O)[C@@H](O)[C@@H](O[C@H]6[C@H](O)[C@@H](O)[C@@H](O[C@H]7[C@H](O)[C@@H](O)[C@@H](O[C@H]8[C@H](O)[C@@H](O)[C@@H](O[C@H]1[C@H](O)[C@H]2O)O[C@@H]8CO)O[C@@H]7CO)O[C@@H]6CO)O[C@@H]5CO)O[C@@H]4CO)O[C@@H]3CO [β-Cyclodextrin]
- LD50 [6]: 453 mg/kg
- Wasserlöslichkeit [7]: 1,8 g pro 100 ml

Compound: Dimethyl-β-cyclodextrin [Dimethyl-β-cyclodextrin (DS = 2,0)]
- LD50 bei Ratten (i.v.) (Ratten): 200 - 207 mg/kg Körpergewicht
- C50 % (Konzentration, bei der eine 50 %-ige Hämolyse stattfand) [8]: 0,33%
- C100 % (Konzentration, bei der eine 100 % Hämolyse stattfand) [8]: 0,5%

Compound: Hydroxyethyl-β-cyclodextrin [Hydroxyethyl-β-cyclodextrin (MS 0.43)]
- Sättigungslöslichkeit des Cyclodextrinderivates im Puffer [9]: 7,2 g/100 ml

Compound: Hydroxypropyl-methyl-β-cyclodextrin
- LD50 bei Ratten (i.v.) (Ratten): > 2000* mg/kg Körpergewicht
- C50 % (Konzentration, bei der eine 50 %-ige Hämolyse stattfand) [8]: 1,5%
- C100 % (Konzentration, bei der eine 100 % Hämolyse stattfand) [8]: 4%
- hämolytische Wirkung [8]: 5 bis 8 mal geringer

Compound: Levocabastin
- Verhältnis R von Sättigungslöslichkeit mit und ohne Zusatz des β-Cyclodextrinderivats ([1]; pH 7,4, 4 % Hydroxypropyl-methyl-β-cyclodextrin): 8
- Verhältnis R von Sättigungslöslichkeit mit und ohne Zusatz des β-Cyclodextrinderivats ([1]; pH 9,5, 4 % Hydroxypropyl-methyl-β-cyclodextrin): 81

Compound: Methyl-β-CD [Methyl-β-CD (DS = 1,79)]
- C50 % (Konzentration, bei der eine 50 %-ige Hämolyse stattfand) [8]: 0,53%
- C100 % (Konzentration, bei der eine 100 % Hämolyse stattfand) [8]: 0,8%

Compound: Tubulazol
- Verhältnis R von Sättigungslöslichkeit mit und ohne Zusatz des β-Cyclodextrinderivats [1, 10]: 43
